In assay [1] the target is T1, KDR (Homo sapiens, UniProt P35968). The experiment in a line: KDR Omnia continuous-read kinase assay. It counts as biochemical. Set-up: purchased Invitrogen or BPS Bioscience PV3660 or 40301. Conditions: 30 min pre-incubation; read-out: IC50_APP KDR. As for the experimental part: A. KDR and FLT-3 Omnia Assay for Potency Assessment:
The protocol below describes a continuous-read kinase assay to measure inherent potency of Avila Therapeutics' compounds against active KDR and FLT-3 enzymes. The assay was performed substantially as described by the vendor (Invitrogen, Carlsbad, Calif.; http://www.invitrogen.com/content.cfm?pageid=11338.)
Briefly, 10× stocks of KDR from Invitrogen or BPS Bioscience (PV3660 or 40301) and FLT-3 (PV3182) enzymes, 1.13×ATP (AS001A) and Y9-Sox or Y12-Sox peptide substrates (KCZ1001) were prepared in 1× kinase reaction buffer consisting of 20 mM Tris, pH 7.5, 5 mM MgCl2, 1 mM EGTA, 5 mM β-glycerophosphate, 5% glycerol (10× stock, KB002A) and 0.2 mM DTT (DS001A). 5 μL of enzyme were pre-incubated in a Corning (#3574) 384-well, white, non-binding surface microtiter plate (Corning, N.Y.) for 30 min at 27° C. with a 0.5 μL volume of 50% DMSO and serially diluted compounds prepared in 50% DMSO. Kinase reactions were started with the addition of 45 μL of the ATP/Y9 or Y5-Sox peptide substrate mix and monitored every 30-90 seconds for 60 minutes at λex360/λem485 in a Synergy^4 plate reader from BioTek (Winooski, Vt.). At the conclusion of each assay, progress curves from each well were examined for linear reaction kinetics and fit statistics (R^2, 95% confidence interval, absolute sum of squares). Initial velocity (0 minutes to 20+ minutes) from each reaction was determined from the slope of a plot of relative fluorescence units vs time (minutes) and then plotted against inhibitor concentration to estimate IC50 from Log [Inhibitor] vs Response, Variable Slope model in GraphPad Prism from GraphPad Software (San Diego, Calif.). […]
The reported IC50_APP and IC50 values are in units of nM.

For assay [2], the target named is T1, KDR. Nature of the assay: Mass spectral analysis of tryptic digest of KDR after incubation with compound. Type of assay: binding. Conditions: KDR 40 pmols, compound 395 pmols, 3 hrs, MALDI. As for the experimental part: KDR kinase (40 pmols) was incubated with II-2 (395 pmols) for 3 hrs at 10× access prior to tryptic digestion. Iodoacetamide was used as the alkylating agent after compound incubation. For tryptic digests a 5 ul aliquot (6.7 pmols) was diluted with 10 ul of 0.1% TFA prior to micro C18 Zip Tipping directly onto the MALDI target using alpha cyano-4-hydroxy cinnamic acid as the matrix (5 mg/ml in 0.1% TFA:Acetonitrile 50:50).
For tryptic digests the instrument was set in Reflectron mode with a pulsed extraction setting of 1800. Calibration was done using the Laser Biolabs Pep Mix standard (1046.54, 1296.69, 1672.92, 2093.09, 2465.20). For CID/PSD analysis the peptide was selected using cursors to set ion gate timing and fragmentation occurred at a laser power about 20% higher and He was used as the collision gas for CID. Calibration for fragments was done using the P14R fragmentation calibration for the Curved field Reflectron.

T1 sequence (P35968 20-1356): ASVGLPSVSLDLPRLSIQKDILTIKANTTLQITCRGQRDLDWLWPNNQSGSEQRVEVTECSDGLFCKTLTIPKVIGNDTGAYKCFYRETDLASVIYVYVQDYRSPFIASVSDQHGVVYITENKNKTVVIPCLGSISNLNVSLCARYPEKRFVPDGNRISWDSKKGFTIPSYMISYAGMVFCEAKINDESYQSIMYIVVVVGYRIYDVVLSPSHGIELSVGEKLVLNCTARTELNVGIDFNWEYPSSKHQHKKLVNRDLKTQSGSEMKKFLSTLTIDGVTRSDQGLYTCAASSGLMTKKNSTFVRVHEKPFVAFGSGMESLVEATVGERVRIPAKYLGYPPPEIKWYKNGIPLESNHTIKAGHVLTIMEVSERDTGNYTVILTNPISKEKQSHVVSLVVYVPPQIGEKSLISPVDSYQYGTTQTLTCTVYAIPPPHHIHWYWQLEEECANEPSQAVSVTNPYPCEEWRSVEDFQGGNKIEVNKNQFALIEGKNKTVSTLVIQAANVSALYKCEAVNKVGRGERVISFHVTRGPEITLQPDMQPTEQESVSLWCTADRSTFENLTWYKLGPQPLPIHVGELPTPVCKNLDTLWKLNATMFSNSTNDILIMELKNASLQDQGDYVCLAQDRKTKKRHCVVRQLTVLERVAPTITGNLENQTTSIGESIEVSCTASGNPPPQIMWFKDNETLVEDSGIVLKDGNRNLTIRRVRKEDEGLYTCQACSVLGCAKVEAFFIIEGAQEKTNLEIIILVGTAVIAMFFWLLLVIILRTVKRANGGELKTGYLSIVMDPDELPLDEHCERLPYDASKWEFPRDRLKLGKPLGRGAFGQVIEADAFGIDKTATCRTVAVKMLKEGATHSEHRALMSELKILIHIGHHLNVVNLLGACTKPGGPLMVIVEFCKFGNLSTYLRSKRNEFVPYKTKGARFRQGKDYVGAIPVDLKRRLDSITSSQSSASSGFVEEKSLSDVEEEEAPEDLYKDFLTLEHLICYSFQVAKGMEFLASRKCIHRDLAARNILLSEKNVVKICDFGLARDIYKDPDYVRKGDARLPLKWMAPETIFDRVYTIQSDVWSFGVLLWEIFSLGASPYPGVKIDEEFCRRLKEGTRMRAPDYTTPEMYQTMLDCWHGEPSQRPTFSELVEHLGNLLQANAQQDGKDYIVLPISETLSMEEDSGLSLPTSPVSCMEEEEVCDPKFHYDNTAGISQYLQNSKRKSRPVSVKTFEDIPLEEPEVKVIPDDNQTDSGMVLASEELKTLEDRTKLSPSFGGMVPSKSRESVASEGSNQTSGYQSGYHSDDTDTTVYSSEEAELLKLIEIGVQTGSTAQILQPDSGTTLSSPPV

On to `C=CC(=O)N1CCC(Sc2nc(Nc3ncc(C#N)s3)cc(N3CCN(C)CC3)n2)CC1` [II-2, 2-(2-(1-Acryloylpiperidin-4-ylthio)-6-(4-methylpiperazin-1-yl)pyrimidin-4-ylamino)thiazole-5-carbonitrile], for which, in assay [1], the IC50 came out at 51.4 nM. In assay [2], the “MH+ of compound-modified tryptic peptide (ICDFGLAR) of KDR” value was 1364.63.

The values are drawn from patent publication US10662195B2, “Protein kinase conjugates and inhibitors” (Celgene Avilomics Research, Inc., priority 2009, dated 2020).
